The results in this text go back to patent US20240287138A1, “CYCLIC PEPTIDES FOR INHIBITING TNF RECEPTOR 1 ACTIVITY” (Merck Sharp & Dohme LLC, priority 2023, published 2024).

Assay [1] concerns the target T1, human soluble TNFR1 (sTNFR1) (Homo sapiens, UniProt P19438).
T1 construct: made in house; host or cells: Sf21 (baculovirus)
T1 sequence (P19438 with tags, fused parts or gaps): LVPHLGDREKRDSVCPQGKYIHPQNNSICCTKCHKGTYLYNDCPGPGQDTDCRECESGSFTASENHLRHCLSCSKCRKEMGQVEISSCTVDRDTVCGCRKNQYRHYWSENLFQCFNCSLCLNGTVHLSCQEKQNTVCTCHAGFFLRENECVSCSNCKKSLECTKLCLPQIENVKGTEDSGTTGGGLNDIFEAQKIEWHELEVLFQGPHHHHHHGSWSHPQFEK
The experiment in a line: Human sTNFR1-peptide displacement assay (LanthaScreen Eu TR-FRET binding assay). A digest of the protocol:
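Readout is the 665/615 nm TR-FRET ratio (Eu anti-His donor, streptavidin-Alexa647 acceptor), normalized to DMSO and saturating displacer, fit by Morrison-based five-parameter logistic for Kd^app. His-tagged sTNFR1 (1-211) prebound to 100 nM biotinylated peptide SEQ ID NO.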
Background: Time-resolved FRET reads energy transfer from a long-lived donor to a nearby acceptor.

The target in assay [2] is T2, human TNFR1 extracellular domain (ECD) protein (Homo sapiens, UniProt P19438).
T2 construct: HRV 3C protease cleavage site (C); 6His (C, cleaved yes); made in house; host or cells: Sf21 insect cells (baculovirus), secreted
T2 sequence (P19438 30-211): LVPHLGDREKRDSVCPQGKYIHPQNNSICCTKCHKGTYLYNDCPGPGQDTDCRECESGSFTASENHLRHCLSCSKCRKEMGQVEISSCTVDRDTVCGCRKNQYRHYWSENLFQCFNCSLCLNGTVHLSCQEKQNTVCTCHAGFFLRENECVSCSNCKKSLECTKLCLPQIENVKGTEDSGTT
The experiment in a line: SPR binding affinity to captured human TNFR1 ECD. A digest of the protocol:
(§1)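 Peptides are tested against captured biotin-tagged human TNFR1 ECD, with parallel TNFR2 ECD binding to check selectivity. Buffer: 10 mM HEPES pH 7.4, 150 mM NaCl, 3 mM EDTA, 0.05% P20, 2% DMSO.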

Another assay concerns the target T3, human TNFR2 ECD protein (Homo sapiens, UniProt P20333).
T3 construct: HRV 3C protease cleavage site (C); 6His (C, cleaved yes); made in house; host or cells: Sf21 insect cells (baculovirus), secreted
T3 sequence (P20333 23-257): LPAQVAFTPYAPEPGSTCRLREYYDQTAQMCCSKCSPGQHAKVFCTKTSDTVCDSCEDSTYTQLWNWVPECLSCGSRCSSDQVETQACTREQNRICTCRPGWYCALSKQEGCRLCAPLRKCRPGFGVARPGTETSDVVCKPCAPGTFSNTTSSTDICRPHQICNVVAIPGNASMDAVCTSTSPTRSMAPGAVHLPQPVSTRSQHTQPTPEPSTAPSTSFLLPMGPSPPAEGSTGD
Briefly: SPR off-target binding (selectivity) to human TNFR2 ECD. Put shortly: as §1

Numbered stars: 1 amine (or outer) side, 2 acyl side, 3 side chain; on linkers, the order of the positions; unused ones are H or OH. Bridge positions count the residues as written; N and C are the ends. Square brackets hold non-standard residues; d marks the D form. Peptide text beside a SMILES is read from it. Trp(βS-Me,7-OMe) = COc1cccc2c([C@H](C)[C@H](N)C(=O)O)c[nH]c12; Trp(7-CN) = N#Cc1cccc2c(C[C@H](N)C(=O)O)c[nH]c12; Trp(7-Cl) = N[C@@H](Cc1c[nH]c2c(Cl)cccc12)C(=O)O; X29 = NC(=O)Cc1cccc(C[C@H](N[*:1])C(=O)[*:2])c1; Phe(3-COOH) = N[C@@H](Cc1cccc(C(=O)O)c1)C(=O)O; Phe(4-CONH2) = NC(=O)c1ccc(C[C@H](N)C(=O)O)cc1; Phe(4-COOH) = N[C@@H](Cc1ccc(C(=O)O)cc1)C(=O)O; X30 = O=C([C@@H](N[*:1])[C@H](O)c1ccncc1)[*:2]; 4Pal(3S-Me) = C[C@@H](c1ccncc1)[C@H](N)C(=O)O; Trp(7-aza) = N[C@@H](Cc1c[nH]c2ncccc12)C(=O)O; Pip(5R-OH) = O=C(O)[C@@H]1CC[C@@H](O)CN1; X13 = O=C([C@H]1CC[C@@H](N[*:1])C1)[*:2]; X4 = O=C([C@H]1C=C[C@@H](N[*:1])C1)[*:2]; X1 = O=C([C@@H]1CC[C@H](N[*:1])C1)[*:2]; Pip(4-aza) = O=C(O)[C@@H]1CNCCN1; hPhe = N[C@@H](CCc1ccccc1)C(=O)O; 4Pal = N[C@@H](Cc1ccncc1)C(=O)O; NMeE = CN[C@@H](CCC(=O)O)C(=O)O; dHyp = O=C(O)[C@H]1C[C@H](O)CN1; Cit = NC(=O)NCCC[C@H](N)C(=O)O; Ahp(2) = CCCCC[C@H](N)C(=O)O; αMeS = C[C@](N)(CO)C(=O)O; NMeA = CN[C@@H](C)C(=O)O; Nle = CCCC[C@H](N)C(=O)O; Sar = CNCC(=O)O

For orientation: Kd means the free concentration of one partner at which half of the binding sites on the other are occupied at equilibrium, for simple one-to-one binding. High values mean weaker binding, low ones tighter binding. For the compound `CCCC[C@@H]1NC(=O)[C@@H]2CC[C@@H](C2)NC(=O)[C@H]([C@@H](C)c2c[nH]c3c(OC)cccc23)NC(=O)CN(C)C(=O)[C@H](Cc2ccc(C(=O)O)cc2)NC(=O)[C@H](Cc2ccc(C(N)=O)cc2)NC(=O)[C@](C)(CO)NC(=O)[C@H](Cc2c[nH]c3c(Cl)cccc23)NC(=O)[C@H](Cc2ccc(C(=O)O)cc2)NC(=O)[C@H](CC(N)=O)NC(=O)[C@H]2C[C@H](O)CN2C(=O)[C@H](Cc2c[nH]c3ccccc23)NC(=O)[C@@H]2CC[C@@H](O)CN2C(=O)[C@H](Cc2ccncc2)NC1=O` [SEQ ID NO. 247] (cyclo([4Pal][Pip(5R-OH)]W[dHyp]N[Phe(4-COOH)][Trp(7-Cl)][αMeS][Phe(4-CONH2)][Phe(4-COOH)][Sar][Trp(βS-Me,7-OMe)][X1][Nle])), the Kd in assay [1] was 0.09 nM; in assay [2], 0.07 nM; at human TNFR2 ECD protein it was above 1000 nM.
In the same order, the values of `CCCC[C@@H]1NC(=O)[C@@H]2CC[C@@H](C2)NC(=O)[C@H]([C@@H](C)c2c[nH]c3c(OC)cccc23)NC(=O)CN(C)C(=O)[C@H](Cc2cccc(C(=O)O)c2)NC(=O)[C@H](Cc2ccc(C(N)=O)cc2)NC(=O)[C@](C)(CO)NC(=O)[C@H](Cc2c[nH]c3c(Cl)cccc23)NC(=O)[C@H](Cc2ccc(C(=O)O)cc2)NC(=O)[C@H](CC(N)=O)NC(=O)[C@H]2C[C@H](O)CN2C(=O)[C@H](Cc2c[nH]c3ccccc23)NC(=O)[C@@H]2CC[C@@H](O)CN2C(=O)[C@H](Cc2ccncc2)NC1=O` [SEQ ID NO. 17] (cyclo([4Pal][Pip(5R-OH)]W[dHyp]N[Phe(4-COOH)][Trp(7-Cl)][αMeS][Phe(4-CONH2)][Phe(3-COOH)][Sar][Trp(βS-Me,7-OMe)][X1][Nle])) are 0.16 nM, 0.04 nM and above 1000 nM.
In the same order, the values of `CCCC[C@@H]1NC(=O)[C@H]2CC[C@H](C2)NC(=O)[C@H]([C@@H](C)c2c[nH]c3c(OC)cccc23)NC(=O)CN(C)C(=O)[C@H](Cc2ccc(O)cc2)NC(=O)[C@H](Cc2ccc(C(N)=O)cc2)NC(=O)[C@](C)(CO)NC(=O)[C@H](Cc2c[nH]c3c(Cl)cccc23)NC(=O)[C@H](Cc2ccc(C(=O)O)cc2)NC(=O)[C@H](CC(N)=O)NC(=O)[C@H](CCC(=O)O)N(C)C(=O)[C@H](Cc2c[nH]c3ccccc23)NC(=O)[C@@H]2CC[C@@H](O)CN2C(=O)[C@H](Cc2ccncc2)NC1=O` [SEQ ID NO. 267] (cyclo([4Pal][Pip(5R-OH)]W[NMeE]N[Phe(4-COOH)][Trp(7-Cl)][αMeS][Phe(4-CONH2)]Y[Sar][Trp(βS-Me,7-OMe)][X13][Nle])) are 0.29 nM, 0.14 nM and above 1000 nM.
For the compound `CCCC[C@@H]1NC(=O)[C@@H]2CC[C@@H](C2)NC(=O)[C@H]([C@@H](C)c2c[nH]c3c(OC)cccc23)NC(=O)CN(C)C(=O)[C@H](Cc2cccc(CC(N)=O)c2)NC(=O)[C@H](Cc2ccc(C(=O)O)cc2)NC(=O)[C@](C)(CO)NC(=O)[C@H](Cc2c[nH]c3c(Cl)cccc23)NC(=O)[C@H](Cc2ccncc2)NC(=O)[C@H](CC(N)=O)NC(=O)[C@H](CCC(=O)O)N(C)C(=O)[C@H](Cc2c[nH]c3ccccc23)NC(=O)[C@@H]2CNCCN2C(=O)[C@H](Cc2ccncc2)NC1=O` [SEQ ID NO. 153] (cyclo([4Pal][Trp(7-Cl)][αMeS][Phe(4-COOH)][X29][Sar][Trp(βS-Me,7-OMe)][X1][Nle][4Pal][Pip(4-aza)]W[NMeE]N)), the Kd in assay [1] is 0.23 nM; in assay [2], 0.16 nM; at human TNFR2 ECD protein, above 1000 nM.
For `CCCCC[C@@H]1NC(=O)[C@@H]2CC[C@@H](C2)NC(=O)[C@H]([C@@H](C)c2c[nH]c3c(OC)cccc23)NC(=O)CN(C)C(=O)[C@H](Cc2ccc(C(N)=O)cc2)NC(=O)[C@H](Cc2ccc(C(N)=O)cc2)NC(=O)[C@](C)(CO)NC(=O)[C@H](Cc2c[nH]c3c(C#N)cccc23)NC(=O)[C@H](Cc2ccc(C(=O)O)cc2)NC(=O)[C@H](CC(N)=O)NC(=O)[C@H]2C[C@H](O)CN2C(=O)[C@H](Cc2c[nH]c3ccccc23)NC(=O)[C@H](CO)NC(=O)[C@H]([C@H](O)c2ccncc2)NC1=O` [SEQ ID NO. 16] (cyclo([Ahp(2)][X30]SW[dHyp]N[Phe(4-COOH)][Trp(7-CN)][αMeS][Phe(4-CONH2)][Phe(4-CONH2)][Sar][Trp(βS-Me,7-OMe)][X1])), in that order: 0.11 nM, 0.09 nM and above 1000 nM.
Broadly, the IC50 is the midpoint of a concentration-inhibition curve. A higher IC50 goes with weaker potency. In assay [1], `CCCC[C@@H]1NC(=O)CSC[C@@H](C(N)=O)NC(=O)[C@H]([C@@H](C)c2c[nH]c3c(OC)cccc23)NC(=O)CN(C)C(=O)[C@H](Cc2ccc(O)cc2)NC(=O)[C@H](Cc2ccc(C(=O)O)cc2)NC(=O)[C@](C)(CO)NC(=O)[C@H](Cc2c[nH]c3c(Cl)cccc23)NC(=O)[C@H](Cc2ccncc2)NC(=O)[C@H](CC(N)=O)NC(=O)[C@H](CCC(=O)O)N(C)C(=O)[C@H](Cc2c[nH]c3ncccc23)NC(=O)[C@H](CO)NC(=O)[C@H]([C@@H](C)c2ccncc2)NC1=O` [SEQ ID NO. 180] ({CH2CO}-[Nle][4Pal(3S-Me)]S[Trp(7-aza)][NMeE]N[4Pal][Trp(7-Cl)][αMeS][Phe(4-COOH)]Y[Sar][Trp(βS-Me,7-OMe)]C-NH2; thioether N-14) registered an IC50 of 0.3 nM. Further, the Kd in assay [1] is 0.18 nM; in assay [2] it was 0.05 nM; on human TNFR2 ECD protein, above 1000 nM.
In the same order, the values of `C[C@H]1C(=O)N[C@@H](CC(N)=O)C(=O)N[C@@H](Cc2ccncc2)C(=O)N[C@@H](Cc2c[nH]c3ccccc23)C(=O)N[C@@](C)(CO)C(=O)N[C@@H](Cc2ccc(C(=O)O)cc2)C(=O)N[C@@H](Cc2ccc(O)cc2)C(=O)N(C)CC(=O)N[C@@H](Cc2c[nH]c3ccccc23)C(=O)N[C@@H]2C=C[C@@H](C2)C(=O)N[C@@H](CCc2ccccc2)C(=O)N[C@@H](Cc2ccncc2)C(=O)N[C@@H](CO)C(=O)N[C@@H](Cc2c[nH]c3ccccc23)C(=O)N1C` [SEQ ID NO. 248] (cyclo([4Pal]SW[NMeA]N[4Pal]W[αMeS][Phe(4-COOH)]Y[Sar]W[X4][hPhe])) are 1.45 nM, 1.56 nM, 2 nM and above 1000 nM.
In the case of `CCCCC[C@@H]1NC(=O)[C@@H]2CC[C@@H](C2)NC(=O)[C@H]([C@@H](C)c2c[nH]c3c(OC)cccc23)NC(=O)CN(C)C(=O)[C@H](Cc2ccc(C(N)=O)cc2)NC(=O)[C@H](Cc2ccc(C(N)=O)cc2)NC(=O)[C@](C)(CO)NC(=O)[C@H](Cc2c[nH]c3c(C#N)cccc23)NC(=O)[C@H](Cc2ccc(C(=O)O)cc2)NC(=O)[C@H](CC(N)=O)NC(=O)[C@H]2C[C@H](O)CN2C(=O)[C@H](Cc2c[nH]c3ccccc23)NC(=O)[C@H](CCCNC(N)=O)NC(=O)[C@H]([C@@H](C)c2ccncc2)NC1=O` [SEQ ID NO. 110] (cyclo([Ahp(2)][4Pal(3S-Me)][Cit]W[dHyp]N[Phe(4-COOH)][Trp(7-CN)][αMeS][Phe(4-CONH2)][Phe(4-CONH2)][Sar][Trp(βS-Me,7-OMe)][X1])), the dissociation constant Kd in assay [1] and in assay [2] was 0.14 nM throughout.
